What all share (format): cell-based
One assay deals with different microbes. The assay is described as follows: Antimicrobial activity, agar plate disc-diffusion (overall statement). Particulars: against different microbes (bacteria and fungi). The procedure:
The agar plate disc-diffusion method was applied. Sterilized filter papers (6 mm in diameter) were wetted with 10 μL of a solution of 5-((2-isopropyl-5-methylphenoxy)methyl)-3-(naphthalen-1-yl)-1,2,4-oxadiazole (3) to be tested, containing 10 mg/mL in DMSO, and the discs were allowed to air dry. The discs were then placed onto the surface of agar plates (nutrient agar for bacteria and Sabouraud's dextrose agar for fungi) seeded with the test organism. Each plate contained 15 mL of the agar medium, previously seeded with 0.2 mL of the broth culture of each organism pregrown for 18 hours. The plates were incubated at 37° C. for 48 h, and 72 h for fungi. The inhibition zones were measured in mm. Discs impregnated with DMSO were used as a control, and its inhibition zone was subtracted from the tested compound actual inhibition zone.

In assay [1] the test system is human prostate cancer cells (PC3). The experiment in a line: Cytotoxicity by SRB assay. Particulars: 0.01 μM to 100 μM for 72 h. The source says:
(§1) The anticancer activity of the described synthesized compounds against highly aggressive androgen-independent metastatic human prostate cancer cells (PC3) and osteosarcoma (MG-63) cells. The human prostate cancer cells (PC3) and human osteosarcoma cells (MG-63) were obtained from Nawah Scientific Inc. (Mokatam, Cairo, Egypt) and cultured in DMEM (Dulbecco's modified eagle's medium), Gibco, USA, supplemented with fetal bovine serum (FBS) at a concentration of 10% and 100 U/mL of penicillin and streptomycin (PS). The Cells were incubated at 37° C. in a humidified environment that contained 5% CO2.
(§2) Cells were seeded in 96-well plates as aliquots of 100 μL cell suspension and incubated in a complete media for 24 h. afterward, cells were treated with 5-((2-isopropyl-5-methylphenoxy)methyl)-3-(naphthalen-1-yl)-1,2,4-oxadiazole at diverse concentrations ranging from 0.01 μM to 100 μM for 72 h. Then, cells were fixed at 4° C. for one hour with 150 μL of 10% trichloroacetic acid (TCA). […] Then, 150 μL of Tris pH 10.5 (10 mM) was added, and the absorbance was measured at 540 nm using a BMG LABTECH®-FLUOstar Omega microplate reader (Ortenberg, Germany). Half maximal inhibitory concentrations (IC50) values were calculated for each experiment using GraphPad Prism 6 software. […]
(§3) The inhibition was calculated using the following equation: Inhibition %=100−Average Viability

Assay [2] has as its system human osteosarcoma cells (MG-63). The assay is described as follows: Cytotoxicity by SRB assay. Particulars: MG-63 cells, 0.01 μM to 100 μM for 72 h.
Text: as §1, §2, §3
A general note: The SRB assay estimates cell density from bound dye.

For another assay, the system named is Bacillus cereus. The assay is described as follows: Agar plate disc-diffusion, inhibition zone. The method, then: (§4) The agar plate disc-diffusion method was applied. […] The discs were then placed onto the surface of agar plates (nutrient agar for bacteria and Sabouraud's dextrose agar for fungi) seeded with the test organism. Each plate contained 15 mL of the agar medium, previously seeded with 0.2 mL of the broth culture of each organism pregrown for 18 hours. The plates were incubated at 37° C. for 48 h, and 72 h for fungi. The inhibition zones were measured in mm. Discs impregnated with DMSO were used as a control, and its inhibition zone was subtracted from the tested compound actual inhibition zone.

The test system of another assay is Escherichia coli. The experiment in a line: Agar plate disc-diffusion, inhibition zone. The procedure: as §4
The next assay concerns Pseudomonas aeruginosa. The assay is described as follows: Agar plate disc-diffusion, inhibition zone. The procedure:
as §4
Background: A growth-free zone around the sample is the usual read-out of agar diffusion tests.

Assay [3] deals with Chrysosporium keratinophilum. The experiment in a line: Agar plate disc-diffusion, inhibition zone. The method, then: as §4
The next assay has as its system Staphylococcus aureus. The experiment in a line: Agar plate disc-diffusion, inhibition zone. The procedure:
as §4

Another assay has as its system Aspergillus flavus. The assay is described as follows: Agar plate disc-diffusion, inhibition zone. The method, then:
as §4

Where [4] appears, read: A = concentration of comp. = 10,000 μL.
Setting [5] is: B = concentration of comp. = 30,000 μL.
[6] abbreviates: C = concentration of comp. = 50,000 μL.

Here are results for two compounds from patent US12180173B1, “5-((2-isopropyl-5-methylphenoxy)methyl)-3-(naphthalen-1-yl)-1,2,4-oxadiazole as an anti-cancer and antimicrobial compound” (KING FAISAL UNIVERSITY, priority 2023, dated 2024).

As to `Cc1ccc(C(C)C)c(OCc2nc(-c3cccc4ccccc34)no2)c1` [Compound 3, 5-((2-isopropyl-5-methylphenoxy)methyl)-3-(naphthalen-1-yl)-1,2,4-oxadiazole], the antimicrobial activity result with different microbes is “excellent antimicrobial activities”. The antiproliferative activity result in assay [1] and in [2] was “excellent antiproliferative activities” in each case. Further, the inhibition zone is 28 mm in the assay on Bacillus cereus (setting [4]); 30 mm with Bacillus cereus (setting [5]); 39 mm with Bacillus cereus (setting [6]); 29 mm with Escherichia coli (setting [4]); 32 mm with Escherichia coli (setting [5]); 51 mm in the assay on Escherichia coli (setting [6]). Further, the inhibition zone in the assay with Pseudomonas aeruginosa (setting [4]) is given as 24 mm; in the assay with Pseudomonas aeruginosa (setting [5]), 28 mm; with Pseudomonas aeruginosa (setting [6]) it was 37 mm; in assay [3] (setting [4]), 27 mm; in assay [3] (setting [5]), 29 mm; in [3] (setting [6]) it was 46 mm. The inhibition zone is on record as 14 mm with Staphylococcus aureus (setting [4]); 21 mm with Staphylococcus aureus (setting [5]); 24 mm with Staphylococcus aureus (setting [6]); 18 mm in the assay on Aspergillus flavus (setting [4]); 22 mm with Aspergillus flavus (setting [5]); 30 mm with Aspergillus flavus (setting [6]).
For `O=C(O)c1cn(C2CC2)c2cc(N3CCNCC3)c(F)cc2c1=O` [Cip., ciprofloxacin, reference compound], the inhibition zone in the assay with Bacillus cereus (setting [4]) came to 29 mm; in the assay on Bacillus cereus (setting [5]), 30 mm; in the assay with Bacillus cereus (setting [6]), 42 mm; in the assay with Escherichia coli (setting [4]), 30 mm; in the assay on Escherichia coli (setting [5]), 39 mm; in the assay on Escherichia coli (setting [6]) it was 60 mm. The inhibition zone with Pseudomonas aeruginosa (setting [4]) worked out at 29 mm; in the assay with Pseudomonas aeruginosa (setting [5]), 30 mm; with Pseudomonas aeruginosa (setting [6]), 53 mm; in [3] (setting [4]), 29 mm; in [3] (setting [5]) it was 30 mm; in assay [3] (setting [6]) it was 53 mm. In addition, the inhibition zone with Staphylococcus aureus (setting [4]) came out at 43 mm; in the assay with Staphylococcus aureus (setting [5]), 44 mm; with Staphylococcus aureus (setting [6]) it was 53 mm; in the assay on Aspergillus flavus (setting [4]), 29 mm; with Aspergillus flavus (setting [5]), 30 mm; in the assay on Aspergillus flavus (setting [6]), 42 mm.
